Measured values published in patent US10821142B2, “Cancer treatment and diagnosis” (priority 2015, dated 2020).

What was measured:
[1] = test system: STING-dependent genes in murine embryonic fibroblasts; experiment: Gene array and qPCR of WT and SKO MEFs treated with AOM or DMH; assay type: cell-based, mouse; conditions: WT and SKO MEFs; DMH 1 mM for 8 hours
Procedure: FIGS. 1A-1E show activation of STING-dependent genes by azoxymethane (AOM) (FIG. 1A) Gene array analysis of Wild type (WT) and STING deficient (SKO) mouse embryonic fibroblasts (MEFs) treated with AOM at 0.14 mM for 8 hours (Left) and 1,2-dimethylhydrazine (DMH) at 1 mM for 8 hours (Right). Highest variable genes are shown. Rows represent individual genes; columns represent individual samples. Grayscale indicates transcript levels below, equal to, or above the mean. Scale represents the intensity of gene expression (log 2 scale ranges between −2.4 and 2.4). (FIG. 1B) qPCR analysis of Cxcl10 and Ifit3 in MEFs treated with AOM and DMH same as FIG. 1A. (FIG. 1C) qPCR analysis of Cxcl10 in Human epithelial cell (FHC) treated with AOM and DMH at 1 mM for 24 hours. (FIG. 1D) FHC cells were transfected with STING or control siRNA for 72 hours followed by AOM and DMH treatment same as FIG. 1C, and were then subjected to Cxcl0 mRNA expression (Left). STING expression level after siRNA treatment was determined by qPCR (Right). […] (FIG. 1E) STING Immunohistochemistry staining of the colon tissue from WT and SKO mice (Left) and Human. All images were shown at original magnification, 200×.
Towards these objectives, the AOM/DSS model, as described above, was utilized and analyzed the effects of AOM and precursor DMH upon STING signaling. Principally, wild type (WT) or STING-deficient (SKO) murine embryonic fibroblasts (MEF) were treated in vitro with DMH or metabolite AOM for 8 hours and microarray analysis performed to analyze the consequences to gene expression. […] The observed STING-dependent gene expression was confirmed following RT-PCR analysis of select mRNA such as Cxcl10 and IFIT3 (FIG. 1B). […] Thus, the DNA damaging agent DMH/AOM can invoke STING-dependent signaling.
Total RNA was isolated from cells or tissues with RNeasy Mini kit (74104, Qiagen, Valencia, Calif.). RNA quality was analyzed by Bionalyzer RNA 6000 Nano (Agilent Technologies, Santa Clara Calif.). […]

[2] = test system: type I IFN production; experiment: IFNB induction (qPCR) in normal and colon cancer cells treated with AOM or DMH; assay type: cell-based, human; conditions: 15 mM for 20 hours
Procedure: FIG. 22. Normal and colon cancer cells were treated with AOM or DMH at 15 mM for 20 hours. IFNB induction was analyzed by qPCR. STING, IRF3 and NF-kB translocation was examined: +, translocation; −, no translocation.
The question arises as to why the STING-signaling pathway may be inhibited in colon adenocarcinoma. Recently, it was shown that STING-deficient cells and mice are sensitive to AOM-induced DNA damage. In this situation, the STING pathway may play a role in the DNA-damage response pathway, to induce the production of cytokines which facilitate tissue repair or damaged cell removal (Chatzinikolaou et al., 2014; Kidane et al., 2014; Lord and Ashworth, 2012). As such, innate immune induction of CA cells in response to DNA damaging agents was examined. […] Thus, the inhibition of the STING pathway may enable DNA damaged cells, harboring mutations, to escape part of the DNA damage response and the immune surveillance machinery to progress into a tumorigenic state.

[3] = test system: IRF3/NF-κB translocation; experiment: Immunofluorescence of IRF3/NF-κB translocation in FHC treated with DMH/AOM; assay type: cell-based, human; conditions: 3 mM for 48 hours
Procedure: FIGS. 8A-8C show fluorescence microscopy analysis (related to FIG. 1) of DAPI staining in WT and SKO MEFs treated with 3 mM of AOM of 3 mM of DMH (FIG. 8A) and anti-dsDNA staining and the ration of cytoplasm to nucleus (FIG. 8B) in Human normal colon epithelial cells (FHC) treated with 3 mM of AOM or 3 mM of DMH for 48 hours. (FIG. 8C) Immunofluorescence microscopy analysis of FHC treated with AOM and DMH sane as FIG. 8A for 48 hours using p65 or IRF3 antibody. Images shown at original magnification, 160×.
To start determining the mechanisms underlining the cause of DMH/AOM-induced STING activity, MEF or FHC cells were treated with these drugs and observed by two different approaches, DAPI staining and immunofluorescence (IF) using anti-dsDNA antibody, the leakage of DNA into the cytosol (FIGS. 8A and 8B). Cytosolic DNA activates STING and stimulates STING/TBK1 trafficking via autophagy to endosomal regions harboring the transcription factors IRF3 and NF-κB, which triggers cytokine production. […]
Cells were cultured and treated in their appropriate media on Lab-Tek II chamber slides. […] Immunostaining was performed with rabbit-anti-STING polyclonal followed by fluorescence conjugated secondary antibodies (FITC-goat-anti-rabbit) (Invitrogen). […]

CNNC [DMH, 1,2-dimethylhydrazine]
STING-dependent gene expression [1]: A similar effect was observed
production of type I IFN ([2]; CA cells with defective STING activated IRF3 or NF-kB activity): unable to generate type I IFN
production of type I IFN ([2]; normal colon epithelial (CCD841) and LS123): able to induce the production of type I IFN
translocation of IRF3/NF-κB [3]: could instigate the translocation of IRF3/NF-κB
